From PubChem BioAssay (NCI)
“And” between values parts separate entries of the source, which are not always exact repeats. Equal entries are not always repeated.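 Exposure lasted 48 hours, with cells grown in 96-well plates and compounds tested at five concentrations. Abbreviation: GI50, concentration required for 50% inhibition of growth. At the TGI there is no net growth.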

What was measured:
Experiment in all cases: inhibition of tumour cell growth, NCI panel, 48 h
DLD-1 colon = system: DLD-1 colon
DMS 273 small cell lung = system: DMS 273 small cell lung
HOP-18 NSCLC = system: HOP-18 NSCLC
KM20L2 colon = system: KM20L2 colon
LXFL 529 NSCLC = system: LXFL 529 NSCLC
M19-MEL melanoma = system: M19-MEL melanoma
MDA-N = system: MDA-N
RXF-631 renal = system: RXF-631 renal
XF 498 CNS = system: XF 498 CNS

SMILES: CN(C)CCC(=O)N1C/C(=C/c2ccccc2)C(=O)/C(=C\c2ccccc2)C1
- TGI (DLD-1 colon): 3.25 µM
- TGI (DMS 273 small cell lung): 3.26 µM
- TGI (HOP-18 NSCLC): 10.9 µM
- TGI (KM20L2 colon): 2.89 µM
- TGI (LXFL 529 NSCLC): 5.51 µM
- TGI (M19-MEL melanoma): 2.83 µM
- TGI (MDA-N): 3.71 µM
- TGI (RXF-631 renal): 10.6 µM
- TGI (XF 498 CNS): 6.69 µM

SMILES: O=C1C=CC(=Nc2ccc3c(c2)C(Br)c2ccccc2-3)O1 (stereo not drawn)
- TGI (DLD-1 colon): > 100 µM
- TGI (LXFL 529 NSCLC): > 100 µM
- TGI (M19-MEL melanoma): > 100 µM

SMILES: CC1=C(C(=O)Nc2ccc([N+](=O)[O-])cc2)C(c2ccc(N(C)C)cc2)C(C(=O)Nc2ccc([N+](=O)[O-])cc2)=C(C)N1
- TGI (DLD-1 colon): 30 µM
- TGI (KM20L2 colon): 43.4 µM
- TGI (LXFL 529 NSCLC): 71.4 µM
- TGI (M19-MEL melanoma): 33.2 µM

SMILES: O=NN(Cc1ccc(Cl)cc1)C(C(=O)O)c1ccccc1 (stereo not drawn)
- TGI (MDA-N): > 100 µM

SMILES: CCCCN(CCCC)C(=O)C(=O)C(C#N)c1ccc(C)cc1 (stereo not drawn)
- TGI (DLD-1 colon): > 100 µM
- TGI (DMS 273 small cell lung): > 100 µM
- TGI (HOP-18 NSCLC): > 100 µM
- TGI (KM20L2 colon): > 100 µM
- TGI (LXFL 529 NSCLC): > 100 µM
- TGI (M19-MEL melanoma): > 100 µM
- TGI (XF 498 CNS): > 100 µM

SMILES: CCOC(=O)/C=C(/C(=O)OCC)n1cc(Cl)c(=O)n(CC(=O)OCC)c1=O
- GI50 (MDA-N): 16.4 µM
- TGI (MDA-N): 11.9 µM and 31.4 µM

SMILES: COc1cc(C2c3cc4c(cc3C(NCC(O)CO)C3COC(=O)[C@H]23)OCO4)cc(OC)c1OC (stereo partly drawn)
- TGI (DLD-1 colon): > 100 µM
- TGI (HOP-18 NSCLC): > 100 µM
- TGI (LXFL 529 NSCLC): > 100 µM
- TGI (M19-MEL melanoma): > 100 µM
- TGI (XF 498 CNS): > 100 µM

SMILES: CN(C(=O)C12C3C4C1C1C2C3C41C(=O)C(C)(C)C)C(C)(C)C (stereo not drawn)
- TGI (DLD-1 colon): > 100 µM
- TGI (DMS 273 small cell lung): > 100 µM
- TGI (KM20L2 colon): > 100 µM
- TGI (LXFL 529 NSCLC): > 100 µM
- TGI (M19-MEL melanoma): > 100 µM
- TGI (RXF-631 renal): > 100 µM
- TGI (XF 498 CNS): > 100 µM

SMILES: CC1OC(O[C@H]2C[C@@H](O)[C@]3(CO)[C@H]4[C@H](O)C[C@]5(C)[C@@H](C6=CC(=O)OC6)CC[C@]5(O)[C@@H]4CC[C@]3(O)C2)C(O)C(O)C1O (stereo partly drawn)
- GI50 (MDA-N): 18.8 µM
- TGI (MDA-N): 33.7 µM

SMILES: COC(=O)C(=O)C(C(=O)C=C(C)C)C(=O)C(=O)Nc1cc(C(F)(F)F)ccc1Cl (stereo not drawn)
- TGI (DLD-1 colon): > 100 µM
- TGI (DMS 273 small cell lung): > 100 µM
- TGI (HOP-18 NSCLC): > 100 µM
- TGI (KM20L2 colon): > 100 µM
- TGI (LXFL 529 NSCLC): > 100 µM
- TGI (RXF-631 renal): > 100 µM
- TGI (XF 498 CNS): > 100 µM

SMILES: CCOc1ccc2c(c1)[n+]([O-])c(S(=O)(=O)c1ccc(C)cc1)c(N)[n+]2[O-]
- TGI (DLD-1 colon): > 100 µM
- TGI (HOP-18 NSCLC): > 100 µM
- TGI (KM20L2 colon): > 100 µM
- TGI (LXFL 529 NSCLC): > 100 µM
- TGI (M19-MEL melanoma): > 100 µM

SMILES: CCCCCCCCCC[C@@H](O)[C@@H]1CC[C@H]([C@H]2CC[C@@H]([C@@H](O)CCCCCCCCCC[C@H]3CC(CC(C)=O)C(=O)O3)O2)O1 (stereo partly drawn)
- TGI (DLD-1 colon): 83 µM
- TGI (DMS 273 small cell lung): 32.8 µM
- TGI (KM20L2 colon): 52.7 µM
- TGI (LXFL 529 NSCLC): 19.5 µM
- TGI (M19-MEL melanoma): 46.5 µM
- TGI (RXF-631 renal): 38.3 µM

SMILES: COC(=O)C[C@H]1CCC2(OCCO2)[C@]1(C)C(=O)OC
- TGI (DMS 273 small cell lung): > 100 µM
- TGI (LXFL 529 NSCLC): > 100 µM
- TGI (M19-MEL melanoma): > 100 µM
- TGI (RXF-631 renal): > 100 µM
- TGI (XF 498 CNS): > 100 µM

SMILES: COc1cnc2cc(C(=O)O)c3c([N+](=O)[O-])cccc3c2c1
- TGI (MDA-N): > 100 µM

SMILES: Cc1cc(N(CCOS(C)(=O)=O)CCOS(C)(=O)=O)ccc1C=Nc1ccc(-c2nc(Cc3ccccc3)sc2C)cc1
- TGI (DLD-1 colon): 31.9 µM
- TGI (DMS 273 small cell lung): 21.7 µM
- TGI (HOP-18 NSCLC): 23.4 µM
- TGI (KM20L2 colon): 21.2 µM
- TGI (LXFL 529 NSCLC): > 50.3 µM
- TGI (M19-MEL melanoma): 24.3 µM
- TGI (MDA-N): 29 µM
- TGI (XF 498 CNS): 9.12 µM

SMILES: Cc1ccc(C)c(NC(=O)CC/C(=N\NC(=O)C(=O)NN)C(C)C(=O)c2ccc(O)cc2)c1 (stereo not drawn)
- TGI (DLD-1 colon): > 100 µM
- TGI (DMS 273 small cell lung): > 100 µM
- TGI (HOP-18 NSCLC): > 100 µM
- TGI (KM20L2 colon): > 100 µM
- TGI (LXFL 529 NSCLC): > 100 µM
- TGI (M19-MEL melanoma): > 100 µM

SMILES: O=C(N/N=C/c1ccccc1O)c1cccc([N+](=O)[O-])c1
- TGI (DLD-1 colon): > 100 µM
- TGI (DMS 273 small cell lung): > 100 µM
- TGI (HOP-18 NSCLC): > 100 µM
- TGI (KM20L2 colon): > 100 µM
- TGI (LXFL 529 NSCLC): > 100 µM
- TGI (M19-MEL melanoma): 66.2 µM
- TGI (XF 498 CNS): > 100 µM

SMILES: CC12CC[C@@H](C(C)(C)O)C1[C@@H](O)CC1(C)C2CCC2[C@@]3(C)CC[C@H](O)C(C)(C)C3C(O)C[C@]21C (stereo partly drawn)
- TGI (DLD-1 colon): 53.3 µM
- TGI (HOP-18 NSCLC): 41.1 µM
- TGI (KM20L2 colon): 28.3 µM
- TGI (LXFL 529 NSCLC): 29.4 µM
- TGI (M19-MEL melanoma): 52.1 µM
- TGI (RXF-631 renal): 69 µM

SMILES: COc1ccc2cc1Oc1ccc(cc1)CC1c3cc(c(OC)cc3CCN1C)Oc1c3c(cc4c1C(C2)N(C)CC4)OCO3 (stereo not drawn)
- TGI (DLD-1 colon): 31.5 µM
- TGI (DMS 273 small cell lung): 17.2 µM
- TGI (KM20L2 colon): 6.18 µM
- TGI (LXFL 529 NSCLC): 25.6 µM
- TGI (M19-MEL melanoma): 12.9 µM
- TGI (RXF-631 renal): 36 µM
- TGI (XF 498 CNS): 21.6 µM
